Assay results taken from PubChem BioAssay (NCI).
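Cells were grown in 96-well plates and exposed to each compound for 48 hours at five concentrations; endpoints were interpolated linearly between bracketing concentrations, or set to the highest concentration if not reached. At the GI50, growth is halved. TGI marks complete inhibition of growth.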

Legend:
Assay in all cases: NCI anticancer screen, dose series, 48 h
HOP-62 NSCLC = system: HOP-62 NSCLC
OVCAR-8 ovarian = system: OVCAR-8 ovarian
NCI-H460 lung = system: NCI-H460 lung
HCC-2998 colon = system: HCC-2998 colon
T-47D breast = system: T-47D breast
HOP-92 NSCLC = system: HOP-92 NSCLC
SNB-75 CNS = system: SNB-75 CNS
MDA-MB-435 = system: MDA-MB-435
RXF 393 renal = system: RXF 393 renal
BT-549 breast = system: BT-549 breast
SF-295 CNS = system: SF-295 CNS
DU-145 prostate = system: DU-145 prostate
SK-OV-3 ovarian = system: SK-OV-3 ovarian
NCI/ADR-RES ovarian = system: NCI/ADR-RES ovarian
MALME-3M melanoma = system: MALME-3M melanoma
ACHN renal = system: ACHN renal
SK-MEL-2 melanoma = system: SK-MEL-2 melanoma
HS 578T breast = system: HS 578T breast
EKVX NSCLC = system: EKVX NSCLC
OVCAR-3 ovarian = system: OVCAR-3 ovarian
CAKI-1 renal = system: CAKI-1 renal
NCI-H522 lung = system: NCI-H522 lung
NCI-H226 lung = system: NCI-H226 lung
SF-539 CNS = system: SF-539 CNS
CCRF-CEM leukemia = system: CCRF-CEM leukemia
UACC-62 melanoma = system: UACC-62 melanoma
NCI-H23 lung = system: NCI-H23 lung
PC-3 prostate = system: PC-3 prostate
MDA-MB-231 breast = system: MDA-MB-231 breast
RPMI-8226 leukemia = system: RPMI-8226 leukemia
OVCAR-5 ovarian = system: OVCAR-5 ovarian
SK-MEL-5 melanoma = system: SK-MEL-5 melanoma
M14 melanoma = system: M14 melanoma
KM12 colon = system: KM12 colon
UO-31 renal = system: UO-31 renal
SK-MEL-28 melanoma = system: SK-MEL-28 melanoma
SF-268 CNS = system: SF-268 CNS
OVCAR-4 ovarian = system: OVCAR-4 ovarian
TK-10 renal = system: TK-10 renal
A498 renal = system: A498 renal
A549 NSCLC = system: A549 NSCLC
HT29 colon = system: HT29 colon
K-562 leukemia = system: K-562 leukemia
HCT-15 colon = system: HCT-15 colon
COLO 205 colon = system: COLO 205 colon
786-0 renal = system: 786-0 renal
MOLT-4 leukemia = system: MOLT-4 leukemia
IGROV1 ovarian = system: IGROV1 ovarian
HCT-116 colon = system: HCT-116 colon
SW-620 colon = system: SW-620 colon
SN12C renal = system: SN12C renal
U251 CNS = system: U251 CNS
MCF7 breast = system: MCF7 breast
LOX IMVI melanoma = system: LOX IMVI melanoma

C=C(C)[C@@H]1CC[C@]2(C(=O)OCCOCCOCC[P+](c3ccccc3)(c3ccccc3)c3ccccc3)CC[C@]3(C)[C@H](CC[C@@H]4[C@@]5(C)CC[C@H](C)C(C)(C)[C@@H]5CC[C@]43C)[C@@H]12
GI50 (HOP-62 NSCLC): 0.0384 µM
TGI (HOP-62 NSCLC): 0.614 µM
GI50 (OVCAR-8 ovarian): 0.0431 µM
TGI (OVCAR-8 ovarian): > 100 µM
GI50 (NCI-H460 lung): 0.0383 µM
TGI (NCI-H460 lung): > 100 µM

N=C(N)c1ccc(-c2ccc(-c3ccc(Cl)cc3Cl)s2)nc1
GI50 (HOP-62 NSCLC): 1.89 µM
TGI (HOP-62 NSCLC): 3.92 µM
GI50 (HCC-2998 colon): 1.74 µM
TGI (HCC-2998 colon): 3.17 µM
GI50 (T-47D breast): 2.21 µM
TGI (T-47D breast): 4.96 µM
GI50 (HOP-92 NSCLC): 1.76 µM
TGI (HOP-92 NSCLC): 4 µM
GI50 (SNB-75 CNS): 1.43 µM
TGI (SNB-75 CNS): 2.83 µM
GI50 (MDA-MB-435): 1.73 µM
TGI (MDA-MB-435): 3.11 µM
GI50 (RXF 393 renal): 1.67 µM
TGI (RXF 393 renal): 3.06 µM
GI50 (BT-549 breast): 6.53 µM
TGI (BT-549 breast): 28.6 µM
GI50 (SF-295 CNS): 1.74 µM
TGI (SF-295 CNS): 3.24 µM
GI50 (DU-145 prostate): 1.85 µM
TGI (DU-145 prostate): 3.27 µM
GI50 (SK-OV-3 ovarian): 8 µM
TGI (SK-OV-3 ovarian): 25.6 µM
GI50 (NCI/ADR-RES ovarian): 1.88 µM
TGI (NCI/ADR-RES ovarian): 3.64 µM
GI50 (MALME-3M melanoma): 1.71 µM
TGI (MALME-3M melanoma): 3.23 µM
GI50 (ACHN renal): 1.77 µM
TGI (ACHN renal): 3.16 µM
GI50 (SK-MEL-2 melanoma): 2.79 µM
TGI (SK-MEL-2 melanoma): 7.32 µM
GI50 (HS 578T breast): 2.15 µM
TGI (HS 578T breast): 4.88 µM
GI50 (EKVX NSCLC): 2.47 µM
TGI (EKVX NSCLC): 6.56 µM
GI50 (OVCAR-3 ovarian): 1.83 µM
TGI (OVCAR-3 ovarian): 3.35 µM
GI50 (CAKI-1 renal): 1.71 µM
TGI (CAKI-1 renal): 3.1 µM
GI50 (NCI-H522 lung): 2.19 µM
TGI (NCI-H522 lung): 4.88 µM
GI50 (NCI-H226 lung): 5.02 µM
TGI (NCI-H226 lung): 28.4 µM
GI50 (SF-539 CNS): 1.66 µM
TGI (SF-539 CNS): 3.06 µM
GI50 (CCRF-CEM leukemia): 2.27 µM
TGI (CCRF-CEM leukemia): 5.01 µM
GI50 (UACC-62 melanoma): 1.9 µM
TGI (UACC-62 melanoma): 3.65 µM
GI50 (NCI-H23 lung): 1.65 µM
TGI (NCI-H23 lung): 3.19 µM
GI50 (PC-3 prostate): 1.86 µM
TGI (PC-3 prostate): 3.67 µM
GI50 (MDA-MB-231 breast): 1.68 µM
TGI (MDA-MB-231 breast): 3.26 µM
GI50 (RPMI-8226 leukemia): 2.32 µM
TGI (RPMI-8226 leukemia): 5.42 µM
GI50 (OVCAR-5 ovarian): 1.71 µM
TGI (OVCAR-5 ovarian): 3.21 µM
GI50 (SK-MEL-5 melanoma): 1.77 µM
TGI (SK-MEL-5 melanoma): 3.24 µM
GI50 (M14 melanoma): 1.85 µM
TGI (M14 melanoma): 3.63 µM
GI50 (OVCAR-8 ovarian): 2.51 µM
TGI (OVCAR-8 ovarian): 6.41 µM
GI50 (KM12 colon): 1.76 µM
TGI (KM12 colon): 3.19 µM
GI50 (UO-31 renal): 1.57 µM
TGI (UO-31 renal): 2.93 µM
GI50 (SK-MEL-28 melanoma): 1.76 µM
TGI (SK-MEL-28 melanoma): 3.28 µM

N#Cc1cc2c(cc1Cl)SC(=Nc1ccccc1)N(S(=O)(=O)c1ccc(Br)s1)S2(=O)=O
GI50 (SF-268 CNS): 20.6 µM
TGI (SF-268 CNS): 47.2 µM
GI50 (OVCAR-4 ovarian): 20.9 µM
TGI (OVCAR-4 ovarian): 44 µM
GI50 (HOP-62 NSCLC): 19.1 µM
TGI (HOP-62 NSCLC): 35.9 µM
GI50 (HCC-2998 colon): 14.7 µM
TGI (HCC-2998 colon): 30.8 µM
GI50 (T-47D breast): 24.3 µM
TGI (T-47D breast): 75 µM
GI50 (HOP-92 NSCLC): 17.6 µM
TGI (HOP-92 NSCLC): 39.7 µM
GI50 (SNB-75 CNS): 24 µM
TGI (SNB-75 CNS): 51.7 µM
GI50 (MDA-MB-435): 16.1 µM
TGI (MDA-MB-435): 33.9 µM
GI50 (RXF 393 renal): 15.1 µM
TGI (RXF 393 renal): 45.1 µM
GI50 (BT-549 breast): 17.7 µM
TGI (BT-549 breast): 32.2 µM
GI50 (SF-295 CNS): 30.4 µM
TGI (SF-295 CNS): 89.5 µM
GI50 (TK-10 renal): 19.7 µM
TGI (TK-10 renal): 35.6 µM
GI50 (DU-145 prostate): 20.6 µM
TGI (DU-145 prostate): 43.4 µM
GI50 (SK-OV-3 ovarian): 39.6 µM
TGI (SK-OV-3 ovarian): > 100 µM
GI50 (A498 renal): 21.9 µM
TGI (A498 renal): 38 µM
GI50 (A549 NSCLC): 24.7 µM
TGI (A549 NSCLC): 66.6 µM
GI50 (NCI/ADR-RES ovarian): 19.8 µM
TGI (NCI/ADR-RES ovarian): 43.8 µM
GI50 (HT29 colon): 32.3 µM
TGI (HT29 colon): > 100 µM
GI50 (K-562 leukemia): 14.5 µM
TGI (K-562 leukemia): 43.8 µM
GI50 (HCT-15 colon): 17.9 µM
TGI (HCT-15 colon): 38.8 µM
GI50 (ACHN renal): 19.7 µM
TGI (ACHN renal): 37.3 µM
GI50 (SK-MEL-2 melanoma): 15 µM
TGI (SK-MEL-2 melanoma): 37.8 µM
GI50 (HS 578T breast): 24 µM
TGI (HS 578T breast): 53.9 µM
GI50 (COLO 205 colon): 49.1 µM
TGI (COLO 205 colon): > 100 µM
GI50 (EKVX NSCLC): 19.5 µM
TGI (EKVX NSCLC): 35.1 µM
GI50 (OVCAR-3 ovarian): 15.9 µM
TGI (OVCAR-3 ovarian): 32 µM
GI50 (786-0 renal): 16.7 µM
TGI (786-0 renal): 32.4 µM
GI50 (CAKI-1 renal): 17.5 µM
TGI (CAKI-1 renal): 33.8 µM
GI50 (MOLT-4 leukemia): 15.9 µM
TGI (MOLT-4 leukemia): 46.2 µM
GI50 (NCI-H522 lung): 15.5 µM
TGI (NCI-H522 lung): 39.1 µM
GI50 (NCI-H226 lung): 28.8 µM
TGI (NCI-H226 lung): 55.8 µM
GI50 (SF-539 CNS): 21.6 µM
TGI (SF-539 CNS): 39 µM
GI50 (IGROV1 ovarian): 12.8 µM
TGI (IGROV1 ovarian): 31.1 µM
GI50 (HCT-116 colon): 15.9 µM
TGI (HCT-116 colon): 33.7 µM
GI50 (CCRF-CEM leukemia): 21.8 µM
TGI (CCRF-CEM leukemia): 45 µM
GI50 (SW-620 colon): 18.9 µM
TGI (SW-620 colon): 40 µM
GI50 (UACC-62 melanoma): 20.8 µM
TGI (UACC-62 melanoma): 36.3 µM
GI50 (NCI-H23 lung): 19.3 µM
TGI (NCI-H23 lung): 38 µM
GI50 (PC-3 prostate): 17.8 µM
TGI (PC-3 prostate): 37.3 µM
GI50 (MDA-MB-231 breast): 22.8 µM
TGI (MDA-MB-231 breast): 42.1 µM
GI50 (RPMI-8226 leukemia): 23.6 µM
TGI (RPMI-8226 leukemia): 67.6 µM
GI50 (OVCAR-5 ovarian): 19.7 µM
TGI (OVCAR-5 ovarian): 39.2 µM
GI50 (SK-MEL-5 melanoma): 16 µM
TGI (SK-MEL-5 melanoma): 30.3 µM
GI50 (SN12C renal): 24 µM
TGI (SN12C renal): 49.6 µM
GI50 (U251 CNS): 19.4 µM
TGI (U251 CNS): 42.5 µM
GI50 (MCF7 breast): 13.6 µM
TGI (MCF7 breast): 39.5 µM
GI50 (M14 melanoma): 14.8 µM
TGI (M14 melanoma): 30.6 µM
GI50 (OVCAR-8 ovarian): 18.9 µM
TGI (OVCAR-8 ovarian): 47.9 µM
GI50 (KM12 colon): 18.7 µM
TGI (KM12 colon): 35.7 µM
GI50 (LOX IMVI melanoma): 18.8 µM
TGI (LOX IMVI melanoma): 43.6 µM
GI50 (UO-31 renal): 15.1 µM
TGI (UO-31 renal): 36.4 µM
GI50 (NCI-H460 lung): 23.1 µM
TGI (NCI-H460 lung): 53 µM
GI50 (SK-MEL-28 melanoma): 19.5 µM
TGI (SK-MEL-28 melanoma): 44.1 µM
